{"source": "patent US10317395B1", "about": "“Ex vivo engineered immune organoids for controlled germinal center reactions” (Cornell University, priority 2015, dated 2019)", "tested_on": "CD19+ B cells", "test": "RGD blocking of B cells with Cilengitide", "assay_type": "cell-based, C57BL6 mice", "details": "10 or 50 μM Cilengitide, 2 days, 3D organoids; αvβ3 and αvβ5 integrin binding to RGD", "experimental": "Immune organoids were incubated in rinsed and incubated in FACS buffer containing fluorescence-conjugated antibodies and/or live cell stains for 12 hours at cell culture conditions. The samples underwent three rinsing rounds with each one involving aspiration of old medium and incubation in fresh FACS buffer for 1 hour. Each organoid was covered with 1×PBS during imaging with Zeiss 710 confocal microscope (Zeiss). In all flow cytometry experiments we started with same number of naïve B cells, i.e. 20,000 B cells. At each time point, samples were degraded using collagenase and the entire cell suspension (regardless of final cell numbers) was re-suspended in equal volume for all samples and equally divided into 3 separate staining groups for flow cytometry analysis (to stain for CD19, GL7, Fas, IgM, IgG1, and IgE). The entire volume was analyzed for total number of cells. Extracted cells were stained by incubation in FACS buffer containing various combinations of antibodies with 1:1000 dilution for 45 minutes in the dark at 4° C. The antibodies consisted of: FITC-, APC, or PE-Cy7-conjugated anti-mouse CD19, GL7, Fas, CD40L, IgG, and IgM (eBioscience). FACS buffer was prepared using 1×PBS++ with 10% FBS. The cell suspension was rinsed twice using the same buffer prior to low cytometer using BD Accuri™ C6 flow cytometer. Data analysis was performed using FlowJo (Tree Star). […]", "note": "“Also recorded” adds a separate entry of the source.", "data": [{"molecule": "CC(C)[C@H]1C(=O)N[C@@H](CCCN=C(N)N)C(=O)NCC(=O)N[C@@H](CC(=O)O)C(=O)N[C@H](Cc2ccccc2)C(=O)N1C", "note": "[Cilengitide]", "values": [{"measurement": "change in CD19+ B cells when RGD signaling is blocked", "value": "partial reduction; also recorded: partial but significant decrease"}]}]}
